Reference: PMC10777851, “SMT-738: a novel small-molecule inhibitor of bacterial lipoprotein transport targeting Enterobacteriaceae” (Antimicrobial Agents and Chemotherapy, 2023)
In brackets after ≈: the same amount, converted by molar mass. Several values for one entry are separate records, joined by “and”; a condition that tells them apart may be missing. Identical values can stand only once.

How the values were obtained:
[1] = test system: two respiratory isolates (carrying NDM-5 and TEM-OSBL) from Russia in 2019; experiment: MIC against two cefiderocol-resistant respiratory isolates; format: cell-based
Protocol: (§1) MIC tests were performed by broth microdilution in-line with CLSI susceptibility testing standards ([20], [21]) either in-house or at IHMA (Europe and USA) or JMI Laboratories using cation-adjusted Mueller Hinton Broth.

[2] = test system: UPEC (E. coli NCTC 13441) LolC and LolE mutants; experiment: MIC fold change of resistant LolC/LolE mutants, UPEC; format: cell-based, Escherichia coli
Protocol: as §1
The FoR of bacterial strains to test compounds was determined by plating aliquots of overnight cultures onto MH-agar plates containing dilutions of the test compound at various multiples of reference MIC as previously determined. Total viable counts of the overnight cultures were determined by spotting 10–20 µL of decimal dilutions in 1× phosphate-buffered saline (PBS) onto non-selective agar. Assay plates were incubated for up to 48 h with colonies being enumerated every 24 h. FoR was determined by dividing the number of colonies observed by the total number of viable cells plated. Representative colonies were then picked and streaked onto selective agar to confirm resistance and obtain resistant isolates. Isolates growing on selective agar were then used to initiate overnight cultures, bacteria pelleted by centrifugation, supernatant removed, and pellets stored at −80°C for subsequent DNA extraction and whole-genome sequencing. Genomic DNA was extracted using the DNeasy Blood and Tissue Kit (Qiagen), quantified using the Quant-iT TM PicoGreen TM dsDNA Assay Kit (Thermo Fisher Scientific), and normalized to 0.2 ng/µL in nuclease-free water. […]

[3] = test system: KPM (K. pneumoniae NCTC 13438) LolC and LolE mutants; experiment: MIC fold change of resistant LolC/LolE mutants, KPM; format: cell-based, Klebsiella pneumoniae
Protocol: as §1
(§2) The FoR of bacterial strains to test compounds was determined by plating aliquots of overnight cultures onto MH-agar plates containing dilutions of the test compound at various multiples of reference MIC as previously determined. Total viable counts of the overnight cultures were determined by spotting 10–20 µL of decimal dilutions in 1× phosphate-buffered saline (PBS) onto non-selective agar. Assay plates were incubated for up to 48 h with colonies being enumerated every 24 h. FoR was determined by dividing the number of colonies observed by the total number of viable cells plated. Representative colonies were then picked and streaked onto selective agar to confirm resistance and obtain resistant isolates. Isolates growing on selective agar were then used to initiate overnight cultures, bacteria pelleted by centrifugation, supernatant removed, and pellets stored at −80°C for subsequent DNA extraction and whole-genome sequencing. Genomic DNA was extracted using the DNeasy Blood and Tissue Kit (Qiagen), quantified using the Quant-iT TM PicoGreen TM dsDNA Assay Kit (Thermo Fisher Scientific), and normalized to 0.2 ng/µL in nuclease-free water. Library preparation and barcode addition were with the Nextera XT DNA Library Prep Kit (Illumina). KAPA Pure beads (Roche) were used for DNA purification. Samples were pooled to achieve 100× coverage of each sample and run on an Illumina Nextseq 500/550 Mid Output Kit v2.5 (150 cycles) (Illumina).

[4] = test system: E. coli; experiment: MIC by broth microdilution (CLSI) against E. coli; format: cell-based, Escherichia coli
Protocol: as §1

[5] = Protein binding, mouse; format: in vitro ADME
[6] = test system: UPEC (E. coli NCTC 13441); experiment: Frequency of resistance determination, E. coli; format: cell-based, Escherichia coli; details: for FoR Range: experiments with colonies observed
Protocol: as §2

[7] = test system: K. pneumoniae ATCC 43816; experiment: Murine lung infection model (neutropenic); format: in vivo, male CD-1 mice; details: 20 mg/kg per dose QD or BID, 60-min IV infusion, 24 h post-infection
Protocol: Male JVC-cannulated CD-1 mice were rendered neutropenic using cyclophosphamide on days −4 and −1 (150 and 100 mg/kg, respectively). Mice were infected intranasally with K. pneumoniae ATCC 43816, and SMT-738 treatment was initiated at QD, 2 h post-infection; BID, 2 and 5 h post-infection. The pre-treatment control animals were euthanized at 2 h post-infection. All other study animals were euthanized at 24 h post-infection. Lungs were dissected and homogenized and quantitatively cultured, serially diluted, and plated on CLED agar, and CFU were quantified following overnight incubation at 30°C. A Kruskal-Wallis statistical test was performed.

[8] = test system: E. coli UTI89; experiment: Murine UTI infection model; format: in vivo, female C3H/HeN mice; details: urine and kidney, 20 mg/kg QD or BID, 60-min IV infusion over 3 days, readout 96 h; below the limit of detection
Protocol: Female JVC (jugular venous catheter)-cannulated C3H/HeN mice were placed on drinking water which was supplemented with 5% glucose solution prior to infection. Mice were infected transurethrally with E. coli UTI89 following published methods. SMT-738 was intravenously infused over 60 min once (QD) or twice (BID, 4 h after the end of first infusion) per day for 3 days starting 24 h post-inoculation. The mice from pre-treatment group were euthanized (with an overdose of pentobarbitone) at 24 h, the remaining mice were euthanized at 96 h post-infection. The kidney, bladder, and urine were collected and quantitatively cultured by plating serial dilutions on appropriate media; CFU were counted after overnight incubation at 37°C. A Kruskal-Wallis statistical test was performed.

[9] = Protein binding, rat; format: in vitro ADME
[10] = test system: K. pneumoniae NCTC 13438; experiment: Time-kill experiment, K. pneumoniae; format: cell-based, Klebsiella pneumoniae; details: 2× and 4× the MIC
Protocol: (§3) An overnight culture of the test strain was diluted to a viable cell density of ~10^6 CFU/mL and dispensed into 96-well plates containing dilutions of SMT-738 to yield the specified multiple of the MIC. Plates were sealed with a breathable seal and incubated under shaking conditions in a humid incubator at 37°C. At specific timepoints (t = 0, 1, 2, 4, 6, 8, and 24 h), samples were taken and plated onto MH agar plates, and colonies enumerated after overnight growth at 37°C. Viable cell numbers as log10 (CFU/mL) were then plotted against time. Where no colonies were detected, the limit of detection was 100 CFU/mL. Compound activity was scored as bactericidal if the viable cell count decreased by at least 3 log10 from the initial count.

[11] = test system: E. coli NCTC 13441; experiment: Time-kill experiment, E. coli; format: cell-based, Escherichia coli; details: 2× and 4× the MIC
Protocol: as §3

[12] = Solubility in formulation vehicle; format: physicochemical; details: 20% Hydroxypropyl-β-cyclodextrin or phosphate buffer pH 6.0
[13] = test system: HepG2 cells; experiment: Seahorse mitochondrial functional assay; format: cell-based; details: top concentration of 500 µM (= 196.85 µg/mL)
Protocol: The Seahorse mitochondrial functional assay was performed by Cyprotex, UK. HepG2 cells were dosed with test compound, and in real time, the extracellular oxygen levels and pH were measured using the Xfe96 flux analyzer (Seahorse Biosciences). Simultaneously, oxygen consumption rate and extracellular acidification rate were measured to determine its effect on oxidative phosphorylation.

[14] = 100 MDR clinical isolates incl. ESBL and CRE

## Cc1cnccc1-c1[nH]c(N)nc1-c1ccc2c(c1)N(C(=O)C(C)(C)N)CCO2 [SMT-738]
[1]; first of the two respiratory isolates
  MIC: 0.25 µg/mL (≈ 0.637 µM)
[1]; second of the two respiratory isolates
  MIC: 0.5 µg/mL (≈ 1.27 µM)
[2]; LolC L256R mutant
  MIC fold change increase: L256R (16×)
[2]; LolE D264A mutant
  MIC fold change increase: D264A (128×)
[3]; LolC E198K mutant
  MIC fold change increase: E198K (64×)
[3]; LolE L60P mutant
  MIC fold change increase: L60P (16×)
[3]; LolE M261R mutant
  MIC fold change increase: M261R (>64×)
[4]; 15 clinical MDR NDM isolates (NDM-1, NDM-4, NDM-5) from India (2018)
  MIC Range E. coli (NDM): 0.25 to 1 µg/mL
[4]; [14]
  MIC50 E. coli: 0.5 µg/mL (≈ 1.27 µM)
  MIC90 E. coli: 1 µg/mL (≈ 2.55 µM)
  MIC range E. coli: 0.12 to 4 µg/mL
[4]; E. coli BAA 2469 (NDM-1 positive)
  MIC: 0.5 µg/mL (≈ 1.27 µM)
[4]; E. coli IHMA 2015405, 20% human serum
  MIC (20% HS): 0.25 µg/mL (≈ 0.637 µM)
[4]; E. coli IHMA 2015405, 50% human serum
  MIC (50% HS): 0.25 µg/mL (≈ 0.637 µM)
[4]; E. coli IHMA 2015405, no human serum
  MIC (no HS): 0.5 µg/mL (≈ 1.27 µM)
[4]; E. coli IHMA 2051414, 20% human serum
  MIC (20% HS): 0.5 µg/mL (≈ 1.27 µM)
[4]; E. coli IHMA 2051414, 50% human serum
  MIC (50% HS): 0.5 µg/mL (≈ 1.27 µM)
[4]; E. coli IHMA 2051414, no human serum
  MIC (no HS): 0.5 µg/mL (≈ 1.27 µM)
[4]; E. coli NCTC 13441 (UPEC, MDR, CTX-M-15 ESBL)
  MIC: 0.39 µM and 0.15 µg/mL
[4]; E. coli UTI89
  MIC: 0.5 µg/mL (≈ 1.27 µM)
[4]; UPEC13441, reference MIC of the FoR experiments
  MICref: 0.3 µg/mL
[5]
  protein binding: 66.9%
[6]; 4× MICref, 48 h
  FoR Range: 1.52E-09
[6]; 8× MICref, 24 h
  FoR Range: 7.20E-10
[6]; single-step selection at 4× and 8× the MIC, after 24 and 48 h
  Frequency of resistance (FoR): ≤ 10^−9
[7]
  reduction of the bacterial burden below pre-treatment stasis level: 1–2 log10
[8]
  reduction of bacterial burden compared to pre-treatment: 5–6 log10
[9]
  protein binding: 64.4%
[10]
  bacterial burden following 24-h exposure: below the limit of detection
  timepoint at which bactericidal activity was observed: 4 h
[11]
  re-growth over the 24-h timepoint: no observed re-growth
  timepoint at which bactericidal activity was displayed: 2 h
[11]; 2-h timepoint
  reduction of viability: > 3 log10 CFU/mL
[12]
  Solubility: > 20 mg/mL
[13]
  mitotoxicity: No toxicity was observed
